# Measured values as given in the CombiSolv-Exp solvation set (Vermeire and Green 2021).
# Test: solvent given as SMILES
smiles,measurement,setting,value
S,"solvation free energy, 298 K",in Brc1ccccc1,-1.3 kcal/mol
same,"solvation free energy, 298 K",in C1CCC2CCCCC2C1,-0.99 kcal/mol
same,"solvation free energy, 298 K",in CC1COC(=O)O1,-1.49 kcal/mol
same,"solvation free energy, 298 K",in CC(=O)N(C)C,-2.25 kcal/mol
same,"solvation free energy, 298 K",in CC(C)=O,-1.9 kcal/mol
same,"solvation free energy, 298 K",in CCCCCCCCCCCCCCCC,-0.88 kcal/mol
same,"solvation free energy, 298 K",in CN1CCCC1=O,-2.2 kcal/mol
same,"solvation free energy, 298 K",in CN(C)C=O,-2.2 kcal/mol
same,"solvation free energy, 298 K",in CN(C)P(=O)(N(C)C)N(C)C,-2.64 kcal/mol
same,"solvation free energy, 298 K",in CO,-1.72 kcal/mol
same,"solvation free energy, 298 K",in COC(=O)CC#N,-1.35 kcal/mol
same,"solvation free energy, 298 K",in COCCOCCO,-1.91 kcal/mol
same,"solvation free energy, 298 K",in COCCOCCOC,-1.96 kcal/mol
same,"solvation free energy, 298 K",in COCCOCCOCCOC,-1.84 kcal/mol
same,"solvation free energy, 298 K",in COCCOCCOCCOCCOC,-1.97 kcal/mol
same,"solvation free energy, 298 K",in CS(C)=O,-2.04 kcal/mol
same,"solvation free energy, 298 K",in Clc1ccccc1,-1.5 kcal/mol
same,"solvation free energy, 298 K",in Nc1ccccc1,-1.7 kcal/mol
same,"solvation free energy, 298 K",in O,-0.65 kcal/mol
same,"solvation free energy, 298 K",in O=CN1CCOCC1,-1.81 kcal/mol
same,"solvation free energy, 298 K",in OCCCOCCCO,-1.24 kcal/mol
same,"solvation free energy, 298 K",in OCCO,-1.17 kcal/mol
same,"solvation free energy, 298 K",in OCCOCCO,-1.34 kcal/mol
same,"solvation free energy, 298 K",in OCCOCCOCCO,-1.32 kcal/mol
same,"solvation free energy, 298 K",in OCc1ccccc1,-1.35 kcal/mol
Clc1c(Cl)c(Cl)c2ccccc2c1Cl,"solvation free energy, 298 K",in CCCCCCCCC=CCCCCCCCC(=O)OCC(COC(=O)CCCCCCCC=CCCCCCCCC)OC(=O)CCCCCCCC=CCCCCCCCC,-9.56 kcal/mol
same,"solvation free energy, 298 K",in O,-2.69 kcal/mol
FCCl,"solvation free energy, 298 K",in O,-0.77 kcal/mol
CCOC(C)O (configuration not stated),"solvation free energy, 298 K",in O,-6.7 kcal/mol
O=C(O)c1cccc(C(=O)O)c1,"solvation free energy, 298 K",in CC(C)O,-13.8 kcal/mol
same,"solvation free energy, 298 K",in CCC(C)O,-13.3 kcal/mol
same,"solvation free energy, 298 K",in CCCCCCO,-13.2 kcal/mol
same,"solvation free energy, 298 K",in CCCCO,-13.5 kcal/mol
same,"solvation free energy, 298 K",in CCCO,-13.6 kcal/mol
same,"solvation free energy, 298 K",in CCCOC(C)=O,-12.5 kcal/mol
same,"solvation free energy, 298 K",in CN1CCCC1=O,-15.5 kcal/mol
same,"solvation free energy, 298 K",in CO,-14.1 kcal/mol
same,"solvation free energy, 298 K",in O,-11.3 kcal/mol
CCCCCCCCC(C)=O,"solvation free energy, 298 K",in O,-2.34 kcal/mol
BrCCBr,"solvation free energy, 298 K",in C1COCCO1,-5.84 kcal/mol
same,"solvation free energy, 298 K",in ClC(Cl)(Cl)Cl,-5.33 kcal/mol
same,"solvation free energy, 298 K",in O,-2.2 kcal/mol
C=C(C)C1CC=C(C)C(O)C1 (configuration not stated),"solvation free energy, 298 K",in O,-4.44 kcal/mol
CN(C)CCc1ccc(O)cc1,"solvation free energy, 298 K",in C=CCCCCCCC=C,-10.1 kcal/mol
same,"solvation free energy, 298 K",in O,-11.3 kcal/mol
O=[N+]([O-])c1ccc(CCl)cc1,"solvation free energy, 298 K",in Brc1ccccc1,-5.65 kcal/mol
same,"solvation free energy, 298 K",in CC(C)=O,-10 kcal/mol
same,"solvation free energy, 298 K",in CC(C)CCO,-8.34 kcal/mol
same,"solvation free energy, 298 K",in CC(C)CO,-8.25 kcal/mol
same,"solvation free energy, 298 K",in CCC(C)O,-8.28 kcal/mol
same,"solvation free energy, 298 K",in CCCC(C)O,-8.24 kcal/mol
same,"solvation free energy, 298 K",in CCCCCO,-8.4 kcal/mol
same,"solvation free energy, 298 K",in CCCCO,-8.49 kcal/mol
same,"solvation free energy, 298 K",in CCCCOC(C)=O,-9.67 kcal/mol
same,"solvation free energy, 298 K",in CCCO,-8.54 kcal/mol
same,"solvation free energy, 298 K",in CCOCC,-9.26 kcal/mol
same,"solvation free energy, 298 K",in O,-5.14 kcal/mol
